Reference: US20200222474A1, “COMPOSITIONS AND METHODS FOR INCREASING PHYTOCHEMICAL BIOAVAILABLITY AND BIOACTIVITY” (North Carolina State University, priority 2017, published 2020)

System: L. acidophilus NCFM
Test: RNA-seq transcriptional analysis of L. acidophilus NCFM growing on plant glycosides
Type: cell-based, Lactobacillus acidophilus
[1] = gene LBA0282 (Hypothetical protein)
[2] = gene LBA0327 (Replication protein)
[3] = gene LBA0328 (Hypothetical protein)
[4] = gene LBA0330 (Hypothetical protein)
[5] = gene LBA0457 (Hypothetical protein)
[6] = gene LBA0485 (Hypothetical protein)
[7] = gene LBA0486 (Hypothetical protein)
[8] = gene LBA0487 (Hypothetical protein.)
[9] = gene LBA0492 (Hypothetical protein)
[10] = gene LBA0541 (Cadmium-transporting ATPase)
[11] = gene LBA0542 (Putative heavy-metal-transporting alpase)
[12] = gene LBA0543 (Hypothetical protein)
[13] = gene LBA0544 (Transcriptional regulator)
[14] = gene LBA0555 (Myosin-crossreactive antigen)
[15] = gene LBA0564 (HAD family hydrolase)
[16] = gene LBA0574 (ABC multi drug exporter)
[17] = gene LBA0575 (ABC multi drug exporter)
[18] = gene LBA0604 (Immunity protein)
[19] = gene LBA0605 (Putative hydrolase)
[20] = gene LBA0608 (Hypothetical protein)
[21] = gene LBA0631 (Hypothetical protein)
[22] = gene LBA0649 (Myosin-crossreactive antigen)
[23] = gene LBA0728 (Hypothetical protein LBA0728)
[24] = gene LBA1025 (Aldo/keto reductase family oxidoreductase)
[25] = gene LBA1026 (Aldo/keto reduetase family oxidoreductase)
[26] = gene LBA1206 (Hypothetical protein)
[27] = gene LBA1401 (Peroxidase (Npx))
[28] = gene LBA1435 (Hypothetical protein)
[29] = gene LBA1455 (Putative surface layer protein)
[30] = gene LBA1469 (UDP-glucose 4-epimerase)
[31] = gene LBA1656 (Hypothetical protein)
[32] = gene LBA1675 (Hypothetical protein)
[33] = gene LBA1676 (ATP-dependent helicase)
[34] = gene LBA1683 (Putative magnesium-transporting atpase)
[35] = gene LBA1704 (N-Acetylmuramic acid-6-phosphate etherase)
[36] = gene LBA1740 (Hypothetical protein)
[37] = gene LBA1752 (Hypothetical protein)
[38] = gene LBA1769 (Hypothetical protein)
[39] = gene LBA1793 (Hypothetical protein)
[40] = gene LBA1869 (Beta-phosphoglueomutase)
[41] = gene LBA1895 (Hypothetical protein)
[42] = nTPM on plant glycoside relative to glucose, mid-exponential phase

Compound: N#C[C@H](O[C@@H]1O[C@H](CO[C@@H]2O[C@H](CO)[C@@H](O)[C@H](O)[C@H]2O)[C@@H](O)[C@H](O)[C@H]1O)c1ccccc1 [Amygdalin]
- Log2 differential normalized TPM ratio compared to glucose [1]: 0.2
- Log2 differential normalized TPM ratio compared to lactose [1]: −0.4
- Transcripts per million (rpm) [1]: 20 rpm
- Log2 differential normalized TPM ratio compared to glucose [2]: −0.9
- Log2 differential normalized TPM ratio compared to lactose [2]: −1.1
- Transcripts per million (rpm) [2]: 3.5 rpm
- Log2 differential normalized TPM ratio compared to glucose [3]: −0.3
- Log2 differential normalized TPM ratio compared to lactose [3]: −0.3
- Transcripts per million (rpm) [3]: 9 rpm
- Log2 differential normalized TPM ratio compared to glucose [4]: 0.1
- Log2 differential normalized TPM ratio compared to lactose [4]: −0.2
- Transcripts per million (rpm) [4]: 18.2 rpm
- Log2 differential normalized TPM ratio compared to glucose [5]: 1.6
- Log2 differential normalized TPM ratio compared to lactose [5]: 0.6
- Transcripts per million (rpm) [5]: 1217.8 rpm
- Log2 differential normalized TPM ratio compared to glucose [6]: 3.3
- Log2 differential normalized TPM ratio compared to lactose [6]: 0.9
- Transcripts per million (rpm) [6]: 1655 rpm
- Log2 differential normalized TPM ratio compared to glucose [7]: 3.7
- Log2 differential normalized TPM ratio compared to lactose [7]: 0.9
- Transcripts per million (rpm) [7]: 2443 rpm
- Log2 differential normalized TPM ratio compared to glucose [8]: 2.3
- Log2 differential normalized TPM ratio compared to lactose [8]: 1
- Transcripts per million (rpm) [8]: 132.1 rpm
- Log2 differential normalized TPM ratio compared to glucose [9]: 5
- Log2 differential normalized TPM ratio compared to lactose [9]: 2.6
- Transcripts per million (rpm) [9]: 213.1 rpm
- Log2 differential normalized TPM ratio compared to glucose [10]: 2
- Log2 differential normalized TPM ratio compared to lactose [10]: −0.2
- Transcripts per million (rpm) [10]: 119.7 rpm
- Log2 differential normalized TPM ratio compared to glucose [11]: 2.2
- Log2 differential normalized TPM ratio compared to lactose [11]: 0
- Transcripts per million (rpm) [11]: 320.9 rpm
- Log2 differential normalized TPM ratio compared to glucose [12]: 2.4
- Log2 differential normalized TPM ratio compared to lactose [12]: 0
- Transcripts per million (rpm) [12]: 283.1 rpm
- Log2 differential normalized TPM ratio compared to glucose [13]: 1.9
- Log2 differential normalized TPM ratio compared to lactose [13]: −0.1
- Transcripts per million (rpm) [13]: 321.3 rpm
- Log2 differential normalized TPM ratio compared to glucose [14]: 6
- Log2 differential normalized TPM ratio compared to lactose [14]: 4.1
- Transcripts per million (rpm) [14]: 2251.5 rpm
- Log2 differential normalized TPM ratio compared to glucose [15]: 2.3
- Log2 differential normalized TPM ratio compared to lactose [15]: 1.8
- Transcripts per million (rpm) [15]: 4.1 rpm
- Log2 differential normalized TPM ratio compared to glucose [16]: −1.2
- Log2 differential normalized TPM ratio compared to lactose [16]: −1.5
- Transcripts per million (rpm) [16]: 31.9 rpm
- Log2 differential normalized TPM ratio compared to glucose [17]: −1
- Log2 differential normalized TPM ratio compared to lactose [17]: −1.2
- Transcripts per million (rpm) [17]: 32.6 rpm
- Log2 differential normalized TPM ratio compared to glucose [18]: 2
- Log2 differential normalized TPM ratio compared to lactose [18]: 1.6
- Transcripts per million (rpm) [18]: 49.6 rpm
- Log2 differential normalized TPM ratio compared to glucose [19]: 3.6
- Log2 differential normalized TPM ratio compared to lactose [19]: 2.6
- Transcripts per million (rpm) [19]: 26.3 rpm
- Log2 differential normalized TPM ratio compared to glucose [20]: 3.1
- Log2 differential normalized TPM ratio compared to lactose [20]: 2
- Transcripts per million (rpm) [20]: 239.3 rpm
- Log2 differential normalized TPM ratio compared to glucose [21]: 7.2
- Log2 differential normalized TPM ratio compared to lactose [21]: 4
- Transcripts per million (rpm) [21]: 141786.9 rpm
- Log2 differential normalized TPM ratio compared to glucose [22]: 2.9
- Log2 differential normalized TPM ratio compared to lactose [22]: 2.1
- Transcripts per million (rpm) [22]: 228.6 rpm
- Log2 differential normalized TPM ratio compared to glucose [23]: 6
- Log2 differential normalized TPM ratio compared to lactose [23]: 4.2
- Transcripts per million (rpm) [23]: 129.5 rpm
- Log2 differential normalized TPM ratio compared to glucose (gene LBA0861 (Polyferredoxin)): 0
- Log2 differential normalized TPM ratio compared to lactose (gene LBA0861 (Polyferredoxin)): −0.5
- Transcripts per million (rpm) (gene LBA0861 (Polyferredoxin)): 153 rpm
- Log2 differential normalized TPM ratio compared to glucose (gene LBA1023 (Oxidoreductase)): −1.5
- Log2 differential normalized TPM ratio compared to lactose (gene LBA1023 (Oxidoreductase)): −1.8
- Transcripts per million (rpm) (gene LBA1023 (Oxidoreductase)): 18.8 rpm
- Log2 differential normalized TPM ratio compared to glucose [24]: −1.8
- Log2 differential normalized TPM ratio compared to lactose [24]: −1.8
- Transcripts per million (rpm) [24]: 7.2 rpm
- Log2 differential normalized TPM ratio compared to glucose [25]: −1.7
- Log2 differential normalized TPM ratio compared to lactose [25]: −2.1
- Transcripts per million (rpm) [25]: 8.1 rpm
- Log2 differential normalized TPM ratio compared to glucose (gene LBA1027 (Oxidoreductase)): 2.9
- Log2 differential normalized TPM ratio compared to lactose (gene LBA1027 (Oxidoreductase)): 1.4
- Transcripts per million (rpm) (gene LBA1027 (Oxidoreductase)): 3613.2 rpm
- Log2 differential normalized TPM ratio compared to glucose [26]: 3.2
- Log2 differential normalized TPM ratio compared to lactose [26]: 2
- Transcripts per million (rpm) [26]: 984.2 rpm
- Log2 differential normalized TPM ratio compared to glucose [27]: 4.4
- Log2 differential normalized TPM ratio compared to lactose [27]: 2.3
- Transcripts per million (rpm) [27]: 1161.2 rpm
- Log2 differential normalized TPM ratio compared to glucose [28]: 7.1
- Log2 differential normalized TPM ratio compared to lactose [28]: 3.3
- Transcripts per million (rpm) [28]: 468.3 rpm
- Log2 differential normalized TPM ratio compared to glucose [29]: 2.4
- Log2 differential normalized TPM ratio compared to lactose [29]: 0.8
- Transcripts per million (rpm) [29]: 73.9 rpm
- Log2 differential normalized TPM ratio compared to glucose [30]: 2.4
- Log2 differential normalized TPM ratio compared to lactose [30]: −2.6
- Transcripts per million (rpm) [30]: 385.3 rpm
- Log2 differential normalized TPM ratio compared to glucose [31]: 2.6
- Log2 differential normalized TPM ratio compared to lactose [31]: 2.1
- Transcripts per million (rpm) [31]: 103.5 rpm
- Log2 differential normalized TPM ratio compared to glucose [32]: 2.1
- Log2 differential normalized TPM ratio compared to lactose [32]: 0.6
- Transcripts per million (rpm) [32]: 1397.9 rpm
- Log2 differential normalized TPM ratio compared to glucose [33]: 1.9
- Log2 differential normalized TPM ratio compared to lactose [33]: 0.7
- Transcripts per million (rpm) [33]: 953.4 rpm
- Log2 differential normalized TPM ratio compared to glucose [34]: 2
- Log2 differential normalized TPM ratio compared to lactose [34]: 2.3
- Transcripts per million (rpm) [34]: 53.6 rpm
- Log2 differential normalized TPM ratio compared to glucose [35]: 2.1
- Log2 differential normalized TPM ratio compared to lactose [35]: 1.4
- Transcripts per million (rpm) [35]: 23 rpm
- Log2 differential normalized TPM ratio compared to glucose [36]: 0.1
- Log2 differential normalized TPM ratio compared to lactose [36]: −0.7
- Transcripts per million (rpm) [36]: 15.4 rpm
- Log2 differential normalized TPM ratio compared to glucose [37]: 0.8
- Log2 differential normalized TPM ratio compared to lactose [37]: 0
- Transcripts per million (rpm) [37]: 12.1 rpm
- Log2 differential normalized TPM ratio compared to glucose [38]: 3
- Log2 differential normalized TPM ratio compared to lactose [38]: 1.2
- Transcripts per million (rpm) [38]: 10240.4 rpm
- Log2 differential normalized TPM ratio compared to glucose [39]: 2.3
- Log2 differential normalized TPM ratio compared to lactose [39]: −0.5
- Transcripts per million (rpm) [39]: 67 rpm
- Log2 differential normalized TPM ratio compared to glucose (gene LBA1796 (ABC exporter)): 2.4
- Log2 differential normalized TPM ratio compared to lactose (gene LBA1796 (ABC exporter)): −0.1
- Transcripts per million (rpm) (gene LBA1796 (ABC exporter)): 39.3 rpm
- Log2 differential normalized TPM ratio compared to glucose [40]: 6.7
- Log2 differential normalized TPM ratio compared to lactose [40]: 4.2
- Transcripts per million (rpm) [40]: 670.5 rpm
- Log2 differential normalized TPM ratio compared to glucose [41]: 2.8
- Log2 differential normalized TPM ratio compared to lactose [41]: 2.6
- Transcripts per million (rpm) [41]: 152.2 rpm
- Log2 Ratio vs Glc, LBA0225 Phospho-β-glucosidase (GH1) [42]: 6.5
- Log2 Ratio vs Glc, LBA0227 PTS EIIC [42]: 9.9
- Log2 Ratio vs Glc, LBA0228 Transcriptional regulator [42]: 6.3
- Log2 Ratio vs Glc, LBA0466 Phosphoenolpyruvate carboxykinase (ATP) [42]: 5.2
- Log2 Ratio vs Glc, LBA0491 PTS EIIC [42]: 4.7
- Log2 Ratio vs Glc, LBA0492 Hypothetical protein [42]: 5
- Log2 Ratio vs Glc, LBA0555 Myosin-cross-reactive antigen/Fatty acid hydratase [42]: 6
- Log2 Ratio vs Glc, LBA0606 PTS EIIBC [42]: 4.9
- Log2 Ratio vs Glc, LBA0631 Hypothetical protein [42]: 7.2
- Log2 Ratio vs Glc, LBA0724 Transcriptional regulator (antiterminator) [42]: 6.4
- Log2 Ratio vs Glc, LBA0725 PTS EIICBA [42]: 9.7
- Log2 Ratio vs Glc, LBA0726 Phospho-β-glucosidase (GH1) [42]: 7.2
- Log2 Ratio vs Glc, LBA0728 Hypothetical protein [42]: 6
- Log2 Ratio vs Glc, LBA0876 PTS EIIC [42]: 4.4
- Log2 Ratio vs Glc, LBA0877 PTS EIIA [42]: 4.6
- Log2 Ratio vs Glc, LBA1401 Peroxidase (Npx) [42]: 4.4
- Log2 Ratio vs Glc, LBA1411 Fumarate reductase flavoprotein subunit [42]: 4
- Log2 Ratio vs Glc, LBA1433 Dihydroxyacetone kinase [42]: 6
- Log2 Ratio vs Glc, LBA1434 Dihydroxyacetone kinase [42]: 6.7
- Log2 Ratio vs Glc, LBA1435 Hypothetical protein [42]: 7.1
- Log2 Ratio vs Glc, LBA1436 Glycerol uptake facilitator protein [42]: 7.2
- Log2 Ratio vs Glc, LBA1632 NAD-dependent aldehyde dehydrogenase [42]: 4.4
- Log2 Ratio vs Glc, LBA1684 PTS EIIA [42]: 6.6
- Log2 Ratio vs Glc, LBA1689 Maltose-6′-phosphate glucosidase (GH4) [42]: 5.3
- Log2 Ratio vs Glc, LBA1701 Melibiose operon regulatory protein [42]: 5.3
- Log2 Ratio vs Glc, LBA1709 Mucus binding protein precursor [42]: 4.5
- Log2 Ratio vs Glc, LBA1797 Hypothetical protein [42]: 4.7
- Log2 Ratio vs Glc, LBA1812 α-Glucosidase II (GH31) [42]: 5.3
- Log2 Ratio vs Glc, LBA1869 β-Phosphoglucomutase [42]: 6.7
- Log2 Ratio vs Glc, LBA1871 Neopullulanase (GH13) [42]: 4.3
- Log2 Ratio vs Glc, LBA1873 Acetate kinase [42]: 4.6
- Log2 Ratio vs Glc, LBA1974 Pyruvate oxidase [42]: 5.5
